Test results as given in US20090137572A1, “2-substituted-4-heteroaryl-pyrimidines useful for the treatment of proliferative disorders” (priority 2004, published 2009).

How the values were obtained:
Assay in all cases: Kinase selectivity profile, kinase inhibition IC50 (Table 4), ATP 100 μM
Format in all cases: biochemical
[1] = target: T1, protein kinases (panel of Table 4) (Homo sapiens, UniProt P11802); conditions: kinase CDK4D1
T1 construct: other: kinase CDK4D1; ATP 100 μM
Experimental: (§1) For the assays shown in Table 3, the kinases were assayed at the following ATP concentrations: SAPK4, PKBΔph, GSK3b, SAPK3, CK2, MKK1, PIM2, IKKB, ERK8, and PRK2 at 5 μM; JNK, PRAK, ROCK-II, SAPK2b, CDK2, CHK1, MSK1, CSK, P70S6K, PKA, CK1, MAPKAP-K2, SGK, PKCa, PDK1, NEK 7, and MAPKAP-K3 at 20 μM; SAPK2a, LCK, AMPK, MAPK2, DYRK1a, MAPKAP-K1a, NEK-6, NEK2a, PBK, CAMK-1, SRPK-1, JNK3, MNK2, RSK2, MNK1, PKBB, and SmMLCK at 50 μM. For the assays in Table 4 the ATP concentration was 100 μM throughout.

[2] = target: T2, protein kinases (panel of Table 4) (Homo sapiens, UniProt Q00534); conditions: kinase CDK6D3
T2 construct: other: kinase CDK6D3; ATP 100 μM
T2 sequence (Q00534 whole entry): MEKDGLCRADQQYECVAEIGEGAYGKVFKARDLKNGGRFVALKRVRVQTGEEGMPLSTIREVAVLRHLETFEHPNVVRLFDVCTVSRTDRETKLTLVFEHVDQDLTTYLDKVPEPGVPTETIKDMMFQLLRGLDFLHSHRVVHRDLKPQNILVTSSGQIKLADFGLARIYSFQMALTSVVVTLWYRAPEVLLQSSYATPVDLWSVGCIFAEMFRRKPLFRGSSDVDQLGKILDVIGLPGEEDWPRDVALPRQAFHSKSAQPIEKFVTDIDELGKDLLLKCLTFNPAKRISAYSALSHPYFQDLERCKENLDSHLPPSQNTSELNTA
Experimental: as §1

[3] = target: T3, protein kinases (panel of Table 4) (Homo sapiens, UniProt O14965); conditions: kinase Aurora A
T3 construct: other: kinase Aurora A; ATP 100 μM
T3 sequence (O14965 1-403): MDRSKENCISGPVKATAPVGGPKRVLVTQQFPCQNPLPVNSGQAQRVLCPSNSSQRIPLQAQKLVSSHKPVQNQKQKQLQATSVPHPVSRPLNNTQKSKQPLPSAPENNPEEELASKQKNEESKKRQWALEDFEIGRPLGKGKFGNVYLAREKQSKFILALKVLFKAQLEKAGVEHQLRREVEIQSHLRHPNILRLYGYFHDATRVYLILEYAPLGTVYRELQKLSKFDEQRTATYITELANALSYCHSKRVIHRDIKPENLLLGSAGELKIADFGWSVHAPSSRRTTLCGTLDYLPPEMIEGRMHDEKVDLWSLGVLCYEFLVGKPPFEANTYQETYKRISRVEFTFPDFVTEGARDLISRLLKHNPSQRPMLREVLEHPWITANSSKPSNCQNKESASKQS
Experimental: as §1

[4] = target: T4, protein kinases (panel of Table 4) (Homo sapiens, UniProt P36888); conditions: kinase Flt3
T4 construct: other: kinase Flt3; ATP 100 μM
T4 sequence (P36888 1-993): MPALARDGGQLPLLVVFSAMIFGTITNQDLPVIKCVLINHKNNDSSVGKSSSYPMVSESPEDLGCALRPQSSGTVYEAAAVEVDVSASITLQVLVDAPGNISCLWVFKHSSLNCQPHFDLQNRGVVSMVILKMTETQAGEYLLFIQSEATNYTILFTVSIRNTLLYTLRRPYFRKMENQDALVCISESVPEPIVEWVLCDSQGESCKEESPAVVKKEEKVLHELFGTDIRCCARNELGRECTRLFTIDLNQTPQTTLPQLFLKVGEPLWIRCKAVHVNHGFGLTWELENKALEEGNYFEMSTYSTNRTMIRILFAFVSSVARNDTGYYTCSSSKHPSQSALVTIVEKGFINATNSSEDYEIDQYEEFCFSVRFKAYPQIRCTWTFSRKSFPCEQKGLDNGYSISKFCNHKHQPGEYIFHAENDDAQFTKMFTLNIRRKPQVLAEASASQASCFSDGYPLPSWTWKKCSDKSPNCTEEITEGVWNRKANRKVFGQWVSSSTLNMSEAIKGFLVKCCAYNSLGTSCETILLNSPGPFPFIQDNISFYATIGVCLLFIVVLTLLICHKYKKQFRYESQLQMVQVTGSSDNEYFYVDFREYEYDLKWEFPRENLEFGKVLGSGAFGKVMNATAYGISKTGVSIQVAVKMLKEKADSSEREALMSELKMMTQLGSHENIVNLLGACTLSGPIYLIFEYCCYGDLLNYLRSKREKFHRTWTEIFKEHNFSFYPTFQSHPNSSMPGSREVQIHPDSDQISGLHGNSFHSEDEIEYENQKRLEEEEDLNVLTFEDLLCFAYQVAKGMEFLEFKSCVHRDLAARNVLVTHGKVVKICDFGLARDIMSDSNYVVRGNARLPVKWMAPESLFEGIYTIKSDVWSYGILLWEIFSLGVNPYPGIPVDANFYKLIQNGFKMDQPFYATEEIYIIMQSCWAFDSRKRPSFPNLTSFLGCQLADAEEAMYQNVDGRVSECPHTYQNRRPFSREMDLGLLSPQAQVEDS
Experimental: as §1

[5] = target: T5, protein kinases (panel of Table 4); conditions: kinase CaMKII
T5 construct: other: kinase CaMKII; ATP 100 μM
Experimental: as §1

[6] = target: T6, protein kinases (panel of Table 4) (Homo sapiens, UniProt Q96GD4); conditions: kinase Aurora B
T6 construct: other: kinase Aurora B; ATP 100 μM
T6 sequence (Q96GD4 whole entry): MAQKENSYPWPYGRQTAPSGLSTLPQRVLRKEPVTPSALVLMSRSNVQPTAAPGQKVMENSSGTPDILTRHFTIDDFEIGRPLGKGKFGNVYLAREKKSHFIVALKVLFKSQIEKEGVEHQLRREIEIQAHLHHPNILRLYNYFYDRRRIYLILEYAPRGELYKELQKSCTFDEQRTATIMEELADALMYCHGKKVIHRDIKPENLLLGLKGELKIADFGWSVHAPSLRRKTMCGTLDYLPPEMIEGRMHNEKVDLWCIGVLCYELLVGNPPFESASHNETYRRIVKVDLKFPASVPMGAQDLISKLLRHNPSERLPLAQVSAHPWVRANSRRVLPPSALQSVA
Experimental: as §1

[7] = target: T7, protein kinases (panel of Table 4) (Homo sapiens, UniProt P28482); conditions: kinase ERK2
T7 construct: other: kinase ERK2; ATP 100 μM
T7 sequence (P28482 whole entry): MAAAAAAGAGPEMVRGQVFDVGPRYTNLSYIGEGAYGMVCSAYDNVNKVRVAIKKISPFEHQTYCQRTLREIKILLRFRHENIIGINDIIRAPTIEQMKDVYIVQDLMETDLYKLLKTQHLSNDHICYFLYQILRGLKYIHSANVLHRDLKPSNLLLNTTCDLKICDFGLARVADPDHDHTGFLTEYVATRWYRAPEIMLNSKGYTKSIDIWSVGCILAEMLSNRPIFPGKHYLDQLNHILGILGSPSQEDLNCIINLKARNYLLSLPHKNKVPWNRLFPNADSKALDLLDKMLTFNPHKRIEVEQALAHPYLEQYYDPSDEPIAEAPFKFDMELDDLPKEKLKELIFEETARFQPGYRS
Experimental: as §1

T1 sequence (P11802 whole entry): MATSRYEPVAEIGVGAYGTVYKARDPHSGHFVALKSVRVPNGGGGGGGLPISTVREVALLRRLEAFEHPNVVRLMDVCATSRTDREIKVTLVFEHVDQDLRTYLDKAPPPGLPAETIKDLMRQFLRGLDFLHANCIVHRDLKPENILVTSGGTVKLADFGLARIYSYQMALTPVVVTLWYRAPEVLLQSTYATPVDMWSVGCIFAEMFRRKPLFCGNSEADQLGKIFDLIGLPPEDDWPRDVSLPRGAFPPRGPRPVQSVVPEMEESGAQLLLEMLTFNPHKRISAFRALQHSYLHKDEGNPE

Structure (SMILES) | IC50 [1] | IC50 [2] | IC50 [3] | IC50 [4] | IC50 [5] | IC50 [6] | IC50 [7]
CNc1nc(C)c(-c2ccnc(Nc3ccc(C)c(S(=O)(=O)N4CCOCC4)c3)n2)s1 [Compound 37, [4-(4-Methyl-2-methylamino-thiazol-5-yl)-pyrimidin-2-yl]-[4-methyl-3-(morpholine-4-sulfonyl)-phenyl]-amine] | > 10000 nM | > 10000 nM | 1100 nM | 170 nM | > 10000 nM | 240 nM | > 10000 nM
Cc1ccc(Nc2nccc(-c3sc(N)nc3C)n2)cc1S(=O)(=O)N1CCOCC1 [Compound 38, [4-(2-Amino-4-methyl-thiazol-5-yl)-pyrimidin-2-yl]-[4-methyl-3-(morpholine-4-sulfonyl)-phenyl]-amine] | > 10000 nM | 4800 nM | 450 nM | 200 nM | 6200 nM | 140 nM | > 10000 nM
CNc1nc(C)c(-c2ccnc(Nc3cccc(S(C)(=O)=O)c3)n2)s1 [Compound 27, (3-Methanesulfonyl-phenyl)-[4-(4-methyl-2-methylamino-thiazol-5-yl)-pyrimidin-2-yl]-amine] | 180 nM | 330 nM | 320 nM | 65 nM | > 10000 nM | 260 nM | > 10000 nM
COCCNS(=O)(=O)c1cccc(Nc2nccc(-c3sc(N)nc3C)n2)c1 [Compound 55, 3-[4-(2-Amino-4-methyl-thiazol-5-yl)-pyrimidin-2-ylamino]-N-(2-methoxy-ethyl)-benzenesulfonamide] | 1600 nM | 2100 nM | 160 nM | 180 nM | > 10000 nM | 110 nM | > 10000 nM
CNc1nc(C)c(-c2ccnc(Nc3cccc(S(N)(=O)=O)c3)n2)s1 [Compound 19, 3-[4-(4-Methyl-2-methylamino-thiazol-5-yl)-pyrimidin-2-ylamino]-benzenesulfonamide] | 17 nM | 39 nM | 40 nM | 30 nM | 4300 nM | 20 nM | > 10000 nM
CCNc1nc(C)c(-c2ccnc(Nc3ccc(N4CCNCC4)cc3)n2)s1 [Compound 59, [4-(2-Ethylamino-4-methyl-thiazol-5-yl)-pyrimidin-2-yl]-(4-piperazin-1-yl-phenyl)-amine] | 46 nM | 29 nM | 90 nM | 17 nM | 1000 nM | 16 nM | > 10000 nM
